The subject of data set [1] is α-Amylase from the pancreas of pigs. The data set is described as follows: Amylase test (inhibition of α-amylase, amylase inhibitor units). The data set is classed as biochemical. To be noted: 1 AIU inhibits two amylase units by 50%, pH 6.9, 37° C. The method, then:
One amylase inhibitor unit (AIU) is defined as the amount of inhibitor which is capable of inhibiting two amylase units (AU) to the extent of 50% under the test conditions. By international agreement, one amylase unit is the amount of enzyme which cleaves 1 μEq of glucosidic bonds in starch in one minute. The μ equivalents of glucosidic bonds cleaved are determined photometrically, with dinitrosalicylic acid, as μEq of reducing sugars. The data are calculated as μmol of maltose, determined with the aid of a maltose calibration line.
α-Amylase from the pancreas of pigs and the solutions to be tested are preincubated together in 1.0 ml of 20 mM phosphate buffer, pH 6.9, +10 mM NaCl at 37° C. for 10-20 minutes. The enzymatic reaction is started by addition of 1.0 ml of soluble starch (0.25% strength in the buffer described) according to Zulkowski. After exactly 10 minutes, the reaction istopped with 2.0 ml of dinitrosalicylic acid color reagent (from Boehringer Mannheim: Biochemica-Information II), and the mixture is heated in a boiling waterbath for 5 minutes for color development. After cooling, the extinction is measured against the reagent blank at 546 nm. The 50% inhibition is determined graphically by means of a probability plot in comparison with the non-inhibited enzyme reaction using various amounts of inhibitor.

A short description of data set [2]: Solubility in water. The data set is classed as physicochemical.
Data set [3] deals with blood sugar. The data set is described as follows: Blood sugar after oral starch load in fasting male Wistar rats. The data set is classed as in vivo. Conditions: simultaneously with 2 g of starch per kg, fasting male Wistar rats 200-250 g. An excerpt:
The α-glucosidase inhibitor according to the invention is particularly suitable for ora administration. It can be administered as the pure substance, as a physiologically acceptable salt with acids or in the form of a pharmaceutical formulation, using the customary auxiliaries and excipients. Combined use with other medicaments, such as hypoglycemic or lipid-lowering substances, may also be advantageous. Since high molecular weight saccharides are not, or not noticeably, absorbed as such from the digestive tract, no toxicologically unacceptable side effects are to be expected of the substance according to the invention. […] To test the pharmacological action of the AI-5662, fasting male Wistar rats weighing between 200 and 250 g were given an oral administration of the inhbitor AI-5662 according to the invention simultaneously with 2 g of starch per kg of body weight. […] Besides blood glucose regulation, the […] according to the invention can also be used for inhibiting salivary α-amylase. This enzyme effects digestion of starch in the mouth, and the sugar thus formed promotes caries of the teeth. The compound according to the invention can therefore be used to prevent or reduce the development of caries.

The subject of data set [4] is experimental animals. The data set is described as follows: Oral administration of high doses to experimental animals (tolerability). The data set is classed as in vivo.

From patent US4618602A, “Amine containing pseudooligosaccharide, pharmaceutical composition and method of use” (Hoechst Aktiengesellschaft, priority 1984, dated 1986) come the findings set out here.

For the compound `C[C@H]1O[C@H](O[C@H]2[C@H](O)[C@@H](O)[C@@H](O[C@H]3[C@H](O)[C@@H](O)C(O)O[C@@H]3CO)O[C@@H]2CO)[C@H](O)[C@@H](O)[C@@H]1N[C@H]1C=C(CO)[C@@H](O[C@H]2O[C@H](CO)[C@@H](O[C@H]3O[C@H](C)[C@@H](N[C@H]4C=C(CO)[C@@H](O)[C@H](O)[C@H]4O)[C@H](O)[C@H]3O)[C@H](O)[C@H]2O)[C@H](O)[C@H]1O` (some centres unmarked) [AI-5662], the α-amylase-inhibiting action in data set [1] (freeze-dried white amorphous powder of Example 2) is on record as 4×10^4 AIU per mg. Also, the specific activity in data set [1] (purified product after silica gel chromatography) is reported as 4×10^4 α-amylase inhibitor units per mg. The solubility in water result in data set [2] is listed as “readily soluble in water”. In addition, the “efficacy on blood sugar concentrations” value in data set [3] is given as “The efficacy of the product was demonstrated”. In addition, in data set [4], the “signs following oral administration even of high doses” value is on record as “no notworthy signs were detected”.
